Experimental data as given in ChEMBL document CHEMBL1926660, “4-Aminoethylpiperazinyl aryl ketones with 5-HT₁A/5-HT₇ selectivity” (Bioorg Med Chem, 2012).

What was measured:
[1] = molecular target: 5-hydroxytryptamine receptor 7 (Homo sapiens) (UniProt P34969); test: Displacement of […] from human 5-HT7 receptor expressed in HEK293 cells at 10 uM; format: cell-based
[2] = molecular target: T1, 5-hydroxytryptamine receptor 1A (Homo sapiens) (UniProt P08908); test: Displacement of [3H]LSD from human 5-HT1A receptor expressed in CHO-K1 cells at 10 uM; format: cell-based
T1 sequence (whole entry): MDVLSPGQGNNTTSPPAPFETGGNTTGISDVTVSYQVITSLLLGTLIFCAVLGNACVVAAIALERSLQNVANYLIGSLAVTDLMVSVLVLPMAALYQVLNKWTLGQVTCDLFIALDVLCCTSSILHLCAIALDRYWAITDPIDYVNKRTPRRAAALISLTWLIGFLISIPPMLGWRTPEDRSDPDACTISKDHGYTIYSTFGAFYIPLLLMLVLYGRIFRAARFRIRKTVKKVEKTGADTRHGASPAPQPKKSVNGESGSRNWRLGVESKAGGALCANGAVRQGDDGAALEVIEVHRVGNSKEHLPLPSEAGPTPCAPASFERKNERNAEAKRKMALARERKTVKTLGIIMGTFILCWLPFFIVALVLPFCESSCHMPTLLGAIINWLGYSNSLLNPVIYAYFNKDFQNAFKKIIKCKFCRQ

5-hydroxytryptamine receptor 7 (Homo sapiens), sequence (P34969 whole entry): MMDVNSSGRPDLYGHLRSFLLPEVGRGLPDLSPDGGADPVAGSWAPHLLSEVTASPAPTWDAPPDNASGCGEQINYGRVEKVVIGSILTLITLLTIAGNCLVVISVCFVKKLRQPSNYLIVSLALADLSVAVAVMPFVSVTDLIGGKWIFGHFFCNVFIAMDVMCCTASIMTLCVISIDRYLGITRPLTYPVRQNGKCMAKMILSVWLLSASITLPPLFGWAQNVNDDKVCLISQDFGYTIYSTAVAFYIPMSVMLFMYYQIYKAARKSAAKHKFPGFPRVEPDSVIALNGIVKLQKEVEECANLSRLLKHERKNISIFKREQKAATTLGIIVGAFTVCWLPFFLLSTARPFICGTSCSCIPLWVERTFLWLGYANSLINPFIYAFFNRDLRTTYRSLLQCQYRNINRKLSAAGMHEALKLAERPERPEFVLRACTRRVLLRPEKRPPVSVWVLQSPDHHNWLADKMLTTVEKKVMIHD

SMILES | inhibition [1] | inhibition [2]
CC(C)(C)CCNCCN1CCN(C(=O)c2ccc(Cl)c(Cl)c2)CC1 | 2% | 65.2%
O=C(c1cc(Cl)cc(Cl)c1)N1CCN(CCNCCCc2nc3ccccc3[nH]2)CC1 | 62.7% | 90.1%
CC(C)(C)CCNCCN1CCN(C(=O)c2cc(C(F)(F)F)cc(C(F)(F)F)c2)CC1 | -0.3% | -4.4%
O=C(c1ccc(Cl)c(Cl)c1)N1CCN(CCNCCCc2nc3ccccc3[nH]2)CC1 | 56.2% | 49.5%
CC(C)(C)CCNCCN1CCN(C(=O)c2cc(Cl)cc(Cl)c2)CC1 | -0.6% | 33.7%
O=C(c1cc(C(F)(F)F)cc(C(F)(F)F)c1)N1CCN(CCNCCCc2nc3ccccc3[nH]2)CC1 | 45.4% | 87.7%
O=C(c1ccc(Cl)cc1)N1CCN(CCNCCCc2nc3ccccc3[nH]2)CC1 | 36.8% | 47.5%

Results, then the compound that gave them:

inhibition [1] | inhibition [2] | SMILES
-0.3% | 13% | CC(C)c1cc(CNCCN2CCN(C(=O)c3cc(C(F)(F)F)cc(C(F)(F)F)c3)CC2)on1
16.1% | 76.4% | CC(C)c1cc(CNCCN2CCN(C(=O)c3ccc(Cl)c(Cl)c3)CC2)on1
93.6% | 56.5% | CC(C)c1cc(CNCCN2CCN(C(=O)c3ccc(Cl)cc3)CC2)on1
-0.2% | 43.2% | CC(C)c1cc(CNCCN2CCN(C(=O)c3cc(Cl)cc(Cl)c3)CC2)on1
-0.6% | 36.7% | CC(C)(C)CCNCCN1CCN(C(=O)c2ccc(Cl)cc2)CC1
